Counter-ions that a name gives are not always drawn.
Test system: CuFi-1 cells
Test: Secretory activity for chloride ions (MQAE fluorescence) in CuFi-1 cells
Assay type: cell-based
Settings: zinc final concentration 10 μM
Experimental: Measurement of the secretory activity for chloride ions was performed in accordance with a previous report (West and Molloy, 1996). CuFi-1 cells were plated on a 96 well plate in 3×10^4 cells/well and incubated for two nights. After removing the culture medium, 100 μL/well of N-(ethoxycarbonylmethyl)-6-methoxyquinolinium bromide (MQAE) (diluted with culture medium and the concentration adjusted to 5 mM) was added. After the addition of MQAE, the cells were incubated for one night so that the indicator was passively loaded. After the loading, the cells were washed two times with Assay buffer, and 100 μL/well of Assay buffer was added. The secretory capacity for chloride ions was measured using FlexStation 1 (fluorescence wavelength of Ex: 355 nm/Em: 460 nm). In order to measure the basic value, nothing was added for 34 seconds immediately after the start of the measurement. Then, at this point, 100 μL/well of the test compound and zinc (final concentration: 10 μM) diluted with Assay buffer, which is free of chloride ions, was added, and the measurement was continued for 86 seconds (total measurement time: 120 seconds). The secretory capacity for chloride ions was calculated by dividing the average of RFU values in 10 seconds between 110 seconds and 120 seconds after the start of the measurement with the average between 0 second and 34 seconds (the basic value). The secretory activity for chloride ions of the test compound (EC50 value) was calculated by obtaining the secretory capacity for chloride ions at each concentration of the serially diluted test compound, and determining a concentration of the test compound that provides a secretory capacity of 50% from two secretory capacities and concentrations sandwiching 50% of the maximum response of each compound.

[1] = Homo sapiens, CuFi-1, CuFi-1 cells

| EC50 [1] [nM] | EC50 (CuFi-1 cells, hydrochloride) [nM] | SMILES |
| --- | --- | --- |
| 9.4 | – | CCNc1nc(C(=O)O)nc(C)c1Cc1ccc(Cl)cc1Cl [Example 1, 5-(2,4-Dichlorobenzyl)-4-(ethylamino)-6-methylpyrimidine-2-carboxylic acid hydrochloride] |
| 24.2 | – | CCCNc1nc(C(=O)O)nc(C)c1Cc1ccc(Cl)cc1Cl [Example 2, 5-(2,4-Dichlorobenzyl)-4-methyl-6-(n-propylamino)pyrimidine-2-carboxylic acid hydrochloride] |
| 53 | – | CCN(CC)c1nc(C(=O)O)nc(C)c1Cc1ccc(Cl)cc1Cl [Example 3, 5-(2,4-Dichlorobenzyl)-4-(diethylamino)-6-methylpyrimidine-2-carboxylic acid hydrochloride] |
| 19.6 | – | Cc1nc(C(=O)O)nc(N[C@@H](C)C(N)=O)c1Cc1ccc(Cl)cc1Cl [Example 4, (S)-4-((1-Amino-1-oxopropan-2-yl)amino)-5-(2,4-dichlorobenzyl)-6-methylpyrimidine-2-carboxylic acid hydrochloride] |
| 30.3 | – | Cc1nc(C(=O)O)nc(NCCCOC(C)C)c1Cc1ccc(Cl)cc1Cl [Example 5, 5-(2,4-Dichlorobenzyl)-4-((3-isopropoxypropyl)amino)-6-methylpyrimidine-2-carboxylic acid] |
| 50.3 | – | Cc1nc(C(=O)O)nc(NCC(C)(C)O)c1Cc1ccc(Cl)cc1Cl [Example 6, 5-(2,4-Dichlorobenzyl)-4-((2-hydroxy-2-methylpropyl)amino)-6-methylpyrimidine-2-carboxylic acid] |
| 41.7 | – | Cc1nc(C(=O)O)nc(N)c1Cc1ccc(Cl)cc1Cl [Example 7, 4-Amino-5-(2,4-dichlorobenzyl)-6-methylpyrimidine-2-carboxylic acid trifluoroacetate] |
| 50.6 | – | Cc1nc(C(=O)O)nc(NCC(=O)O)c1Cc1ccc(Cl)cc1Cl [Example 8, 4-((Carboxymethyl)amino)-5-(2,4-dichlorobenzyl)-6-methylpyrimidine-2-carboxylic acid hydrochloride] |
| 5.5 | – | CCNc1nc(C(=O)O)nc(C(C)C)c1Cc1ccc(Cl)cc1Cl [Example 9, 5-(2,4-Dichlorobenzyl)-4-(ethylamino)-6-isopropylpyrimidine-2-carboxylic acid] |
| 7.3 | – | CCNc1nc(C(=O)O)nc(C2CC2)c1Cc1ccc(Cl)cc1Cl [Example 10, 4-Cyclopropyl-5-(2,4-dichlorobenzyl)-6-(ethylamino)pyrimidine-2-carboxylic acid] |
| 11.1 | – | CCc1nc(C(=O)O)nc(NC)c1Cc1ccccc1Cl [Example 11, 5-(2-Chlorobenzyl)-4-ethyl-6-(methylamino)pyrimidine-2-carboxylic acid] |
| 6.7 | – | CCNc1nc(C(=O)O)nc(CC)c1Cc1ccccc1Cl [Example 12, 5-(2-Chlorobenzyl)-4-ethyl-6-(ethylamino)pyrimidine-2-carboxylic acid] |
| 5.6 | – | CNc1nc(C(=O)O)nc(C(C)C)c1Cc1ccccc1Cl [Example 13, 5-(2-Chlorobenzyl)-4-isopropyl-6-(methylamino)pyrimidine-2-carboxylic acid] |
| 5 | – | CCNc1nc(C(=O)O)nc(C(C)C)c1Cc1ccccc1Cl [Example 14, 5-(2-Chlorobenzyl)-4-(ethylamino)-6-isopropylpyrimidine-2-carboxylic acid] |
| 10.8 | – | CCNc1nc(C(=O)O)nc(CC)c1Cc1ccc(Cl)cc1Cl [Example 15, 5-(2,4-Dichlorobenzyl)-4-ethyl-6-(ethylamino)pyrimidine-2-carboxylic acid] |
| 52.7 | – | CCNc1nc(C(=O)O)nc(COC)c1Cc1ccc(Cl)cc1Cl [Example 16, 5-(2,4-Dichlorobenzyl)-4-(ethylamino)-6-(methoxymethyl)pyrimidine-2-carboxylic acid] |
| 15.7 | – | CNc1nc(C(=O)O)nc(C)c1Oc1ccc(Cl)cc1Cl [Example 17, 5-(2,4-Dichlorophenoxy)-4-methyl-6-(methylamino)pyrimidine-2-carboxylic acid] |
| 4.6 | – | CCNc1nc(C(=O)O)nc(C)c1Sc1ccccc1Cl [Example 18, 5-((2-Chlorophenyl)thio)-4-(ethylamino)-6-methylpyrimidine-2-carboxylic acid] |
| 13.1 | – | CCNc1nc(C(=O)O)nc(C(C)C)c1Sc1ccccc1Cl [Example 19] |
| 5.9 | – | CCNc1nc(C(=O)O)nc(CC)c1Sc1ccccc1Cl [Example 20] |
| 18.6 | – | CCNc1nc(C(=O)O)nc(CC)c1Sc1ccc(Cl)cc1Cl [Example 21] |
| – | 7.1 | CCNc1nc(C(=O)O)nc(C)c1Sc1ccccc1Cl [Example 22, 5-((2-Chlorophenyl)thio)-4-(ethylamino)-6-methylpyrimidine-2-carboxylic acid hydrochloride] |

| EC50 [1] [nM] | EC50 (CuFi-1 cells, hydrochloride) [nM] | SMILES |
| --- | --- | --- |
| 86 | – | CNc1nc(C(=O)O)nc(C)c1Sc1ccccc1 [Example 23] |
| 12.9 | – | CCNc1nc(C(=O)O)nc(C)c1Sc1ccccc1C(F)(F)F [Example 24] |
| 14.6 | – | CCNc1nc(C(=O)O)nc(C)c1Sc1ccccc1F [Example 25] |
| 14.4 | – | CNc1nc(C(=O)O)nc(C)c1Sc1ccccc1C(C)C [Example 26] |
| 14 | – | CNc1nc(C(=O)O)nc(C)c1Sc1ccccc1C [Example 27] |
| 2.8 | – | CNc1nc(C(=O)O)nc(C)c1Sc1cccc(Cl)c1Cl [Example 28] |
| 6.9 | – | CNc1nc(C(=O)O)nc(C)c1Sc1ccc(F)cc1Cl [Example 29] |
| 9.5 | – | Cc1nc(C(=O)O)nc(NC(C)C)c1Sc1ccccc1Cl [Example 30] |
| 34.9 | – | CCNc1nc(C(=O)O)nc(C)c1Oc1ccc(Cl)cc1Cl [Example 31] |
| 17.1 | – | COc1nc(C(=O)O)nc(C)c1Cc1ccc(Cl)cc1Cl [Example 32, 5-(2,4-Dichlorobenzyl)-4-methoxy-6-methylpyrimidine-2-carboxylic acid] |
| 18.4 | – | CCOc1nc(C(=O)O)nc(C)c1Cc1ccc(Cl)cc1Cl [Example 33] |
| 80.1 | – | COc1nc(C(=O)O)nc(C)c1Oc1ccc(Cl)cc1Cl [Example 34] |
| 29.3 | – | CCOc1nc(C(=O)O)nc(C)c1Oc1ccc(Cl)cc1Cl [Example 35] |
| 80.6 | – | COc1nc(C(=O)O)nc(C)c1Sc1ccc(Cl)cc1Cl [Example 36] |
| 30.3 | – | CCc1nc(C(=O)O)nc(OC)c1Sc1ccc(Cl)cc1Cl [Example 37] |
| 5.5 | – | CCc1nc(C(=O)O)nc(OC)c1Cc1ccccc1Cl [Example 39] |
| 8.1 | – | CCc1nc(C(=O)O)nc(OC)c1Cc1ccc(F)cc1Cl [Example 40] |
| 16.3 | – | CCc1nc(C(=O)O)nc(OC)c1Cc1cccc(Cl)c1Cl [Example 41] |
| 7.6 | – | CCc1nc(C(=O)O)nc(OC)c1Cc1ccc(Cl)cc1F [Example 42] |
| 66.7 | – | CCc1nc(C(=O)O)nc(OC)c1Cc1ccccc1F [Example 43] |
| 9.4 | – | CCc1nc(C(=O)O)nc(OC)c1Cc1cccc(F)c1Cl [Example 44] |
| 14.7 | – | CCCc1nc(C(=O)O)nc(OC)c1Cc1ccccc1Cl [Example 45, hydrochloride] |

| EC50 [1] [nM] | EC50 (CuFi-1 cells, hydrochloride) [nM] | SMILES |
| --- | --- | --- |
| 15.9 | – | CCCc1nc(C(=O)O)nc(OC)c1Cc1ccc(F)cc1Cl [Example 46] |
| 8.6 | – | CCCc1nc(C(=O)O)nc(OC)c1Cc1ccc(Cl)cc1F [Example 47] |
| 9.4 | – | CCOc1nc(C(=O)O)nc(CC)c1Cc1cccc(Cl)c1Cl [Example 48, 5-(2,3-Dichlorobenzyl)-4-ethoxy-6-ethylpyrimidine-2-carboxylic acid] |
| 24.8 | – | CCOc1nc(C(=O)O)nc(C)c1Cc1ccc(F)cc1Cl [Example 49] |
| 10.2 | – | CCOc1nc(C(=O)O)nc(C)c1Cc1cccc(Cl)c1Cl [Example 50] |
| 8.2 | – | CCOc1nc(C(=O)O)nc(CC)c1Cc1ccc(Cl)cc1F [Example 51] |
| 15.8 | – | CCOc1nc(C(=O)O)nc(C)c1Cc1ccccc1Cl [Example 52, 5-(2-Chlorobenzyl)-4-ethoxy-6-methylpyrimidine-2-carboxylic acid hydrochloride] |
| 15.8 | – | CCCOc1nc(C(=O)O)nc(C)c1Cc1ccccc1Cl [Example 53] |
| 16 | – | CCOc1nc(C(=O)O)nc(C)c1Cc1ccc(Cl)cc1F [Example 56] |
| 20.8 | – | CCOc1nc(C(=O)O)nc(C)c1Cc1ccc(OC)cc1Cl [Example 57] |
| 13 | – | CCCc1nc(C(=O)O)nc(OCC)c1Cc1ccc(Cl)cc1F [Example 58] |
| 12 | – | CCOc1nc(C(=O)O)nc(CC)c1Cc1cccc(Cl)c1F [Example 60] |
| 11.4 | – | CCOc1nc(C(=O)O)nc(CC)c1Cc1cccc(F)c1Cl [Example 61] |
| 4.9 | – | CCOc1nc(C(=O)O)nc(CC)c1Cc1ccccc1Cl [Example 62] |
| 4.8 | – | CCc1nc(C(=O)O)nc(OCCCF)c1Cc1ccccc1Cl [Example 63] |
| 14.9 | – | CCCOc1nc(C(=O)O)nc(CC)c1Cc1ccccc1Cl [Example 64] |
| 17.4 | – | COc1nc(C(=O)O)nc(C)c1Cc1cccc(Cl)c1Cl [Example 66] |
| 15.9 | – | COc1ccc(Cc2c(C)nc(C(=O)O)nc2OC)c(Cl)c1 [Example 67] |
| 4 | – | COc1nc(C(=O)O)nc(C)c1Cc1ccc(C(F)(F)F)cc1Cl [Example 68] |
| 26.7 | – | COc1nc(C(=O)O)nc(C)c1Cc1ccc(F)cc1Cl [Example 69] |
| 59.9 | – | COc1nc(C(=O)O)nc(C(C)C)c1Cc1ccccc1Cl [Example 70] |
